# Measured values reported in PubChem BioAssay (NCI).
#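 Five compound concentrations were applied to cells in 96-well plates for 48 hours; endpoints were derived by simple linear interpolation of the resulting dose-response curve. The concentration for full growth arrest is given as TGI.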
# What was measured:
# Test in all cases: NCI anticancer screen, dose series, 48 h
# SF-539 CNS = test system: SF-539 CNS
# NCI-H460 lung = test system: NCI-H460 lung
# NCI-H23 lung = test system: NCI-H23 lung
# KM20L2 colon = test system: KM20L2 colon
# SNB-19 CNS = test system: SNB-19 CNS
# RPMI-8226 leukemia = test system: RPMI-8226 leukemia
# M14 melanoma = test system: M14 melanoma
# HCT-116 colon = test system: HCT-116 colon
# DMS 273 small cell lung = test system: DMS 273 small cell lung
# MOLT-4 leukemia = test system: MOLT-4 leukemia
# OVCAR-3 ovarian = test system: OVCAR-3 ovarian
# SK-MEL-28 melanoma = test system: SK-MEL-28 melanoma
# CCRF-CEM leukemia = test system: CCRF-CEM leukemia
# DMS 114 small cell lung = test system: DMS 114 small cell lung
# UACC-62 melanoma = test system: UACC-62 melanoma
# HCC-2998 colon = test system: HCC-2998 colon
# OVCAR-5 ovarian = test system: OVCAR-5 ovarian
# CAKI-1 renal = test system: CAKI-1 renal
# DLD-1 colon = test system: DLD-1 colon
# SW-620 colon = test system: SW-620 colon
# K-562 leukemia = test system: K-562 leukemia
# SR leukemia = test system: SR leukemia
# OVCAR-8 ovarian = test system: OVCAR-8 ovarian
# HOP-62 NSCLC = test system: HOP-62 NSCLC
# UACC-257 melanoma = test system: UACC-257 melanoma
# SK-MEL-5 melanoma = test system: SK-MEL-5 melanoma
# U251 CNS = test system: U251 CNS
# HCT-15 colon = test system: HCT-15 colon
# NCI-H226 lung = test system: NCI-H226 lung
# SF-295 CNS = test system: SF-295 CNS
# IGROV1 ovarian = test system: IGROV1 ovarian
# OVCAR-4 ovarian = test system: OVCAR-4 ovarian
# HL-60(TB) leukemia = test system: HL-60(TB) leukemia
# HT29 colon = test system: HT29 colon
# SNB-75 CNS = test system: SNB-75 CNS
# NCI-H522 lung = test system: NCI-H522 lung
# COLO 205 colon = test system: COLO 205 colon
# KM12 colon = test system: KM12 colon
# 786-0 renal = test system: 786-0 renal
# M19-MEL melanoma = test system: M19-MEL melanoma
# MALME-3M melanoma = test system: MALME-3M melanoma
# TK-10 renal = test system: TK-10 renal
# HOP-92 NSCLC = test system: HOP-92 NSCLC
# A549 NSCLC = test system: A549 NSCLC
# SK-MEL-2 melanoma = test system: SK-MEL-2 melanoma
# UO-31 renal = test system: UO-31 renal
# LXFL 529 NSCLC = test system: LXFL 529 NSCLC
# SF-268 CNS = test system: SF-268 CNS
# ACHN renal = test system: ACHN renal
# HOP-18 NSCLC = test system: HOP-18 NSCLC
# SNB-78 CNS = test system: SNB-78 CNS
# LOX IMVI melanoma = test system: LOX IMVI melanoma
# EKVX NSCLC = test system: EKVX NSCLC
# SN12C renal = test system: SN12C renal
# A498 renal = test system: A498 renal
# RXF 393 renal = test system: RXF 393 renal
smiles,measurement,setting,value
c1csc(C[N+]23CN4CN(CN(C4)C2)C3)c1,TGI,SF-539 CNS,> 100 µM
same,TGI,NCI-H460 lung,49.2 µM
same,TGI,NCI-H23 lung,> 100 µM
same,TGI,KM20L2 colon,55.7 µM
same,TGI,SNB-19 CNS,> 100 µM
same,TGI,RPMI-8226 leukemia,58.7 µM
same,TGI,M14 melanoma,32.2 µM
same,TGI,HCT-116 colon,> 100 µM
same,TGI,DMS 273 small cell lung,41.8 µM
same,TGI,MOLT-4 leukemia,44.6 µM
same,TGI,OVCAR-3 ovarian,> 100 µM
same,TGI,SK-MEL-28 melanoma,> 100 µM
same,TGI,CCRF-CEM leukemia,44.9 µM
same,TGI,DMS 114 small cell lung,40.2 µM
same,TGI,UACC-62 melanoma,47.5 µM
same,TGI,HCC-2998 colon,34.1 µM
same,TGI,OVCAR-5 ovarian,67.3 µM
same,TGI,CAKI-1 renal,59.5 µM
same,TGI,DLD-1 colon,> 100 µM
same,TGI,SW-620 colon,90.7 µM
same,TGI,K-562 leukemia,48.8 µM
same,TGI,SR leukemia,35.9 µM
same,TGI,OVCAR-8 ovarian,74.9 µM
same,TGI,HOP-62 NSCLC,46.6 µM
same,TGI,UACC-257 melanoma,> 100 µM
same,TGI,SK-MEL-5 melanoma,35.8 µM
same,TGI,U251 CNS,45.7 µM
same,TGI,HCT-15 colon,77.2 µM
same,TGI,NCI-H226 lung,> 100 µM
same,TGI,SF-295 CNS,> 100 µM
same,TGI,IGROV1 ovarian,70.2 µM
same,TGI,OVCAR-4 ovarian,49 µM
same,TGI,HL-60(TB) leukemia,33.2 µM
same,TGI,HT29 colon,> 100 µM
same,TGI,SNB-75 CNS,> 100 µM
same,TGI,NCI-H522 lung,> 100 µM
same,TGI,COLO 205 colon,40.8 µM
same,TGI,KM12 colon,> 100 µM
same,TGI,786-0 renal,58.8 µM
same,TGI,M19-MEL melanoma,56 µM
same,TGI,MALME-3M melanoma,33.2 µM
same,TGI,TK-10 renal,79.5 µM
same,TGI,HOP-92 NSCLC,44.9 µM
same,TGI,A549 NSCLC,87 µM
same,TGI,SK-MEL-2 melanoma,37.3 µM
same,TGI,UO-31 renal,> 100 µM
same,TGI,LXFL 529 NSCLC,43.1 µM
same,TGI,SF-268 CNS,> 100 µM
same,TGI,ACHN renal,> 100 µM
O=[N+]([O-])CCc1cccc([N+](=O)[O-])c1,TGI,HOP-18 NSCLC,> 100 µM
same,TGI,SF-539 CNS,> 100 µM
same,TGI,NCI-H460 lung,> 100 µM
same,TGI,NCI-H23 lung,> 100 µM
same,TGI,KM20L2 colon,> 100 µM
same,TGI,SNB-78 CNS,> 100 µM
same,TGI,SNB-19 CNS,> 100 µM
same,TGI,RPMI-8226 leukemia,> 100 µM
same,TGI,LOX IMVI melanoma,> 100 µM
same,TGI,M14 melanoma,> 100 µM
same,TGI,HCT-116 colon,> 100 µM
same,TGI,DMS 273 small cell lung,> 100 µM
same,TGI,MOLT-4 leukemia,> 100 µM
same,TGI,OVCAR-3 ovarian,> 100 µM
same,TGI,SK-MEL-28 melanoma,> 100 µM
same,TGI,CCRF-CEM leukemia,> 100 µM
same,TGI,DMS 114 small cell lung,> 100 µM
same,TGI,UACC-62 melanoma,> 100 µM
same,TGI,HCC-2998 colon,> 100 µM
same,TGI,OVCAR-5 ovarian,> 100 µM
same,TGI,CAKI-1 renal,> 100 µM
same,TGI,DLD-1 colon,> 100 µM
same,TGI,SW-620 colon,22.7 µM
same,TGI,K-562 leukemia,> 100 µM
same,TGI,SR leukemia,> 100 µM
same,TGI,OVCAR-8 ovarian,> 100 µM
same,TGI,HOP-62 NSCLC,> 100 µM
same,TGI,UACC-257 melanoma,> 100 µM
same,TGI,SK-MEL-5 melanoma,> 100 µM
same,TGI,EKVX NSCLC,> 100 µM
same,TGI,U251 CNS,> 100 µM
same,TGI,HCT-15 colon,> 100 µM
same,TGI,NCI-H226 lung,> 100 µM
same,TGI,SN12C renal,> 100 µM
same,TGI,SF-295 CNS,> 100 µM
same,TGI,IGROV1 ovarian,> 100 µM
same,TGI,A498 renal,> 100 µM
same,TGI,OVCAR-4 ovarian,> 100 µM
same,TGI,HL-60(TB) leukemia,> 100 µM
same,TGI,HT29 colon,> 100 µM
same,TGI,SNB-75 CNS,> 100 µM
same,TGI,NCI-H522 lung,> 100 µM
same,TGI,COLO 205 colon,> 100 µM
same,TGI,KM12 colon,> 100 µM
same,TGI,RXF 393 renal,> 100 µM
same,TGI,786-0 renal,> 100 µM
same,TGI,M19-MEL melanoma,> 100 µM
same,TGI,MALME-3M melanoma,> 100 µM
same,TGI,TK-10 renal,> 100 µM
same,TGI,HOP-92 NSCLC,> 100 µM
same,TGI,A549 NSCLC,> 100 µM
same,TGI,SK-MEL-2 melanoma,> 100 µM
same,TGI,UO-31 renal,> 100 µM
same,TGI,LXFL 529 NSCLC,> 100 µM
same,TGI,SF-268 CNS,> 100 µM
same,TGI,ACHN renal,> 100 µM
